In test [1] the test system is HEK-Blue IL-6. Briefly: Inhibition of IL-6/JAK/STAT3 signalling pathway in HEK-Blue IL-6 cells at 10 uM incubated for 16 hrs by QUANTI-blue assay relative to control. Type of test: cell-based. The note with it: Homo sapiens.
Test [2] can be described thus: Inhibition of IL-6/JAK/STAT3 signalling pathway in HEK-Blue IL-6 cells incubated for 16 hrs by QUANTI-blue assay. In kind it is cell-based. The settings on record: Homo sapiens, HEK-Blue IL-6, 16 h.
The subject of test [3] is DU-145. Kind of test: Antiproliferative activity against human DU-145 cells assessed as inhibition of cell growth at 10 uM measured after 96 hrs by MTT assay relative to control. Type of test: functional. (Tetrazolium dyes change colour on reduction, which living cells bring about.)
Test [4] concerns DU-145. Briefly: Antiproliferative activity against human DU-145 cells assessed as inhibition of cell growth measured after 96 hrs by MTT assay. Type of test: functional, cell-based. The settings on record: DU-145, 96 h.
For test [5], the system named is MDA-MB-231. Briefly: Antiproliferative activity against human MDA-MB-231 cells assessed as inhibition of cell growth at 10 uM measured after 96 hrs by MTT assay relative to control. Type of test: functional.
Test [6] concerns MDA-MB-231. Briefly: Antiproliferative activity against human MDA-MB-231 cells assessed as inhibition of cell growth measured after 96 hrs by MTT assay. In kind it is functional, cell-based. The settings on record: MDA-MB-231, 96 h.

For orientation: inhibition means the relative decrease from the control value, in per cent. For orientation: IC50 means the concentration that gives 50% inhibition.

As for `CN1CCN(c2cc3c(cc2Nc2nnc(-c4ccccc4)s2)nc(-c2ccc(F)cc2)n3C2CCC2)CC1`, the inhibition in test [1] came to 64.7%. In addition, the IC50 in test [2] came out at 6.27 µM.
Consider `CCCn1c(-c2ccc(F)cc2)nc2cc(Nc3nnc(-c4ccccc4)s3)c(N3CCN(C)CC3)cc21`, for which the inhibition in test [1] is 105%. For the same compound, the IC50 is 1.32 µM in test [2], 4.68 µM in test [4] and 3.34 µM in test [6]. The inhibition at 10 µM in test [3] came to 80.7%; in test [5], 93.4%.
As for `CN(C)CCn1c(-c2ccc(F)cc2)nc2cc(Nc3nnc(-c4ccccc4)s3)c(N3CCN(C)CC3)cc21`, the inhibition in test [1] is 2.11%. Also, the IC50 in test [2] was more than 10 µM.
Take `CC(C)n1c(-c2ccc(F)cc2)nc2cc(Nc3nnc(-c4ccccc4)s3)c(N3CCN(C)CC3)cc21`: the inhibition in test [1] was determined as 71.4%. Besides, the IC50 in test [2] is 3.12 µM; in test [4], more than 10 µM; in test [6], more than 10 µM. Besides, the inhibition at 10 µM in test [3] was -4.96%; in test [5] it was 0.1%.
Take `Fc1ccc(Oc2cc3c(cc2Nc2nnc(-c4cccc(C(F)(F)F)c4)s2)nc(-c2ccc(F)cc2)n3C2CC2)cc1`: the inhibition in test [1] is 6.34%. The compound further gave an IC50 in test [2] of more than 10 µM.
On the same counts, the results for `CCCn1c(-c2cccc(F)c2)nc2cc(Nc3nnc(-c4ccccc4C(F)(F)F)s3)c(F)cc21` are 46.2% and more than 10 µM.
Take `CN1CCN(c2cc3c(cc2Nc2nnc(-c4cccnc4)s2)nc(-c2ccc(F)cc2)n3C2CC2)CC1`: the inhibition in test [1] is -0.36%. The compound further yielded an IC50 in test [2] of more than 10 µM.
Turning to `CN1CCN(c2cc3c(cc2Nc2nnc(-c4ccccc4)s2)nc(-c2ccccc2)n3C2CC2)CC1`, the inhibition in test [1] came to 78.1%. For the same compound, the IC50 in test [2] turned out to be 1.99 µM; in test [4], 9.17 µM; in test [6] it was 5.92 µM. Also, the inhibition at 10 µM was determined as 47% in test [3] and 83.3% in test [5].
Regarding `CN1CCN(c2cc3c(cc2Nc2nnc(-c4ccccc4)s2)nc(-c2ccccc2F)n3C2CC2)CC1`, the inhibition in test [1] is 63.3%. In test [2], this compound displayed a 50% inhibitory concentration (IC50) of 7.56 µM.
As to `Fc1ccc(-c2nc3cc(Nc4nnc(-c5cccc(Cl)c5)s4)c(F)cc3n2C2CC2)cc1`, in test [1], the inhibition was determined as 67.8%. Also, the IC50 in test [2] was 3.37 µM; in test [4] it was more than 10 µM; in test [6] it was more than 10 µM. Also, the inhibition at 10 µM is -7.76% in test [3] and -2.05% in test [5].
Consider `CN1CCN(c2cc3c(cc2Nc2nnc(-c4ccccc4)s2)nc(-c2ccc(F)cc2)n3C2CCCC2)CC1`, for which, in test [1], the inhibition stood at 77.5%. In addition, the IC50 was 5.28 µM in test [2], more than 10 µM in test [4] and more than 10 µM in test [6]. Moreover, the inhibition at 10 µM in test [3] was -26.6%; in test [5] it was -5.02%.
For the compound `O=[N+]([O-])c1ccc2c(c1)S(=O)(=O)C=C2`, the inhibition in test [1] was 107%. For the same compound, the figures for the IC50 in test [2], in test [4] and in test [6] were 2.21 µM, 1.84 µM and 1.66 µM, respectively. The inhibition at 10 µM in test [3] came to 79.6%; in test [5] it was 92.2%.
Turning to `CN(C)C1CCN(c2cc3c(cc2Nc2nnc(-c4ccccc4)s2)nc(-c2ccc(F)cc2)n3C2CC2)CC1`, the inhibition in test [1] came to 69.2%. In addition, the figures for the IC50 in test [2], in test [4] and in test [6] were 3.29 µM, more than 10 µM and more than 10 µM, respectively. For the same compound, the inhibition at 10 µM was -2.92% in test [3] and 19.5% in test [5].
As for `CCCn1c(-c2ccc(F)cc2)nc2cc(Nc3nnc(-c4cccc(F)c4)s3)c(N3CCN(C)CC3)cc21`, the inhibition in test [1] is 85.3%. The IC50 in test [2] was found to be 1.96 µM; in test [4] it was 4.34 µM; in test [6], 3.33 µM. For the same compound, the inhibition at 10 µM in test [3] is 78.9%; in test [5] it was 94.7%.
For `Fc1cc2c(cc1Nc1nnc(-c3ccccc3F)s1)nc(-c1ccccc1F)n2C1CC1`, in test [1], the inhibition amounted to 63.6%. The compound also gave an IC50 in test [2] of 3.92 µM.
For the compound `Fc1ccc(-c2nc3cc(Nc4nnc(-c5ccccc5C(F)(F)F)s4)c(F)cc3n2C2CC2)cc1`, the inhibition in test [1] came out at 99.9%. Moreover, the IC50 is 0.6 µM in test [2], more than 10 µM in test [4] and more than 10 µM in test [6]. Besides, the inhibition at 10 µM came to 14.7% in test [3] and 3.62% in test [5].
Regarding `CN1CCN(c2cc3c(cc2Nc2nnc(-c4cccc(C(F)(F)F)c4)s2)nc(-c2ccc(F)cc2)n3C2CC2)CC1`, the inhibition in test [1] turned out to be 100%. Further, the IC50 in test [2] stood at 2.23 µM; in test [4] it was 5.66 µM; in test [6], 3.98 µM. The inhibition at 10 µM in test [3] worked out at 64.6%; in test [5], 94.1%.
For the compound `CN1CCN(c2cc3c(cc2Nc2nnc(-c4cccc(C#N)c4)s2)nc(-c2ccc(F)cc2)n3C2CC2)CC1`, the inhibition in test [1] is 83.7%. Moreover, the IC50 in test [2] amounted to 4.01 µM; in test [4] it was 2.17 µM; in test [6], 0.96 µM. The inhibition at 10 µM in test [3] is 85.9%; in test [5], 92.7%.
As to `CN1CCN(c2cc3c(cc2Nc2nnc(-c4ccccc4)s2)nc(-c2cccnc2)n3C2CC2)CC1`, the inhibition in test [1] worked out at 25.5%. Besides, in test [2], the IC50 was more than 10 µM.
Turning to `COCCn1c(-c2ccc(F)cc2)nc2cc(Nc3nnc(-c4ccccc4)s3)c(N3CCN(C)CC3)cc21`, the inhibition in test [1] stood at 65.4%. The compound further came in with an IC50 in test [2] of 6.42 µM.
Regarding `CC(C)c1ccc(-c2nnc(Nc3cc4nc(-c5ccc(F)cc5)n(C5CC5)c4cc3F)s2)cc1`, the inhibition in test [1] turned out to be 61.9%. Further, the IC50 in test [2] was 7.88 µM; in test [4] it was more than 10 µM; in test [6] it was more than 10 µM. The results for the inhibition at 10 µM in test [3] and in test [5] were 17.9% and 1.85%, respectively.
On to `CC(C)N1CCN(c2cc3c(cc2Nc2nnc(-c4ccccc4)s2)nc(-c2ccc(F)cc2)n3C2CC2)CC1`, for which the inhibition in test [1] was determined as 77.1%. Moreover, the figures for the IC50 in test [2], in test [4] and in test [6] were 2.42 µM, 4.04 µM and 3.21 µM, respectively. Moreover, the inhibition at 10 µM in test [3] came to 79.9%; in test [5], 90.1%.
With `Fc1cccc(-c2nc3cc(Nc4nnc(-c5cccc(C(F)(F)F)c5)s4)c(F)cc3n2C2CC2)c1`, the inhibition in test [1] turned out to be 90%. In addition, the IC50 is 0.41 µM in test [2], more than 10 µM in test [4] and more than 10 µM in test [6]. The inhibition at 10 µM in test [3] was -7.06%; in test [5], 5.54%.
Regarding `Fc1ccc(-c2nc3cc(Nc4nnc(-c5ccc(Cl)c(C(F)(F)F)c5)s4)c(F)cc3n2C2CC2)cc1`, the inhibition in test [1] turned out to be 34.2%. This compound came in with an IC50 in test [2] of more than 10 µM.
On the same counts, the results for `CCCn1c(-c2cccc(F)c2)nc2cc(Nc3nnc(-c4cccc(C(F)(F)F)c4)s3)c(F)cc21` are 20.2% and more than 10 µM.
The like results for `Fc1ccc(-c2nc3cc(Nc4nnc(-c5ccc(C(F)(F)F)cc5)s4)ccc3n2C2CC2)cc1` were, in that order, 8.71% and more than 10 µM.
For `CN1CCN(c2cc3c(cc2Nc2nnc(-c4ccccc4)s2)nc(-c2ccc(Cl)cc2)n3C2CC2)CC1`, the inhibition in test [1] came to 75.8%. For the same compound, the values for the IC50 in test [2], in test [4] and in test [6] were 2.96 µM, more than 10 µM and more than 10 µM, respectively. The inhibition at 10 µM in test [3] was -4.82%; in test [5], 6.84%.
`Fc1ccc(-c2nc3cc(Nc4nnc(-c5ccc(C(F)(F)F)cc5)s4)c(F)cc3n2C2CC2)cc1`: in test [1], the inhibition turned out to be 64.1%. For the same compound, the IC50 is 4.84 µM in test [2], more than 10 µM in test [4] and more than 10 µM in test [6]. Moreover, the inhibition at 10 µM in test [3] was -25%; in test [5] it was -2.76%.
Consider `Fc1ccc(-c2nc3cc(Nc4nnc(-c5ccc(C(F)(F)F)cc5)s4)c(N4CCOCC4)cc3n2C2CC2)cc1`, for which, in test [1], the inhibition amounted to 0.29%. In test [2], this compound had an IC50 of more than 10 µM.
The like results for `CC(C)(C)c1ccc(-c2nnc(Nc3cc4nc(-c5ccc(F)cc5)n(C5CC5)c4cc3F)s2)cc1` were, in that order, 36.1% and more than 10 µM.
As for `CCOc1cc2c(cc1Nc1nnc(-c3cccc(C#N)c3)s1)nc(-c1ccc(F)cc1)n2C1CC1`, in test [1], the inhibition stood at 92.5%. Further, the IC50 in test [2] was 0.52 µM; in test [4], more than 10 µM; in test [6], more than 10 µM. For the same compound, the inhibition at 10 µM is 14% in test [3] and -5.91% in test [5].
On to `Fc1ccc(-c2nc3cc(Nc4nnc(-c5cccc(C(F)(F)F)c5)s4)c(F)cc3n2C2CC2)cc1`, for which the inhibition at 10 µM in test [3] is -3.68%; in test [5], 8.11%. The IC50 in test [4] and in test [6] was more than 10 µM throughout.
As for `Fc1cc2c(cc1Nc1nnc(-c3cccc(C(F)(F)F)c3)s1)nc(-c1ccc(C(F)(F)F)cc1)n2C1CC1`, in test [1], the inhibition came to 29.6%. The compound further displayed an IC50 in test [2] of more than 10 µM.
On the same counts, the results for `Fc1cc2c(cc1Nc1nnc(-c3cccc(C(F)(F)F)c3)s1)nc(-c1ccccc1)n2C1CC1` are 25.6% and more than 10 µM.
On the same counts, the results for `CCCn1c(-c2cccc(F)c2)nc2cc(Nc3nnc(-c4ccc(C(F)(F)F)cc4)s3)c(F)cc21` are 54.6% and more than 10 µM.
The like results for `Fc1ccc(-c2nc3cc(Nc4nnc(-c5cccc(C(F)(F)F)c5)s4)ccc3n2C2CC2)cc1` were, in that order, 34.5% and more than 10 µM.
In the case of `Fc1ccc(-c2nc3cc(Nc4nnc(-c5ccccc5)s4)c(N4CCN(c5ccccc5)CC4)cc3n2C2CC2)cc1`, the inhibition in test [1] amounted to 21.3%. Besides, the IC50 in test [2] is more than 10 µM.
The like results for `CN1CCN(c2cc3c(cc2Nc2nnc(-c4ccccc4)s2)nc(-c2cccc(F)c2)n3C2CC2)CC1` were, in that order, 56.6% and 4.51 µM.
Consider `Fc1ccc(-c2nc3cc(Nc4nnc(-c5ccccc5)s4)ccc3n2C2CC2)cc1`, for which the inhibition in test [1] came out at 66.1%. In addition, inhibition in test [2] was half-maximal at 5.79 µM (IC50).

(Values after ChEMBL document CHEMBL5321275, “Discovery, Optimization, and Evaluation of Novel N-(Benzimidazol-5-yl)-1,3,4-thiadiazol-2-amine Analogues as Potent STAT3 Inhibitors for Cancer Treatment” (J Med Chem, 2023).)
